From patent US9937250B2, “Immunogenic tumor associated stromal cell antigen peptides and methods of their use” (University of Pittsburgh—Of the Commonwealth System of …, priority 2011, dated 2018) come the findings set out here.

The subject of assay [1] is CD8+ T cells from HLA-A2+ normal donors or HLA-A2+ melanoma patients. Put plainly: In vitro sensitization of human CD8+ T cells with TASA peptide-pulsed autologous DC, IFN-γ ELISA against peptide-pulsed T2 cells. The assay is classed as cell-based. On the procedure:
The indicated peptides were pulsed onto autologous DC and used to prime and boost CD8^+ T cells isolated from the peripheral blood of eight normal HLA-A2^+ donors or ten HLA-A2^+ patients with melanoma. Seven days after the primary in vitro sensitization (IVS) (melanoma patients) or a secondary IVS boost (normal donors), T cells were analyzed for their reactivity against HLA-A2^+ T2 cells pulsed with the relevant peptide vs. the negative control HIV-nef190-198 peptide. After 24 hours of co-culture, cell-free supernatants were analyzed for levels of secreted IFN-γ using a commercial ELISA. Data are reported in Bar and Whisker plots, with p-values provided for paired pre- versus post-IVS data from normal donors and patients. In addition, p<0.05 was detected for MEL-Post versus ND-Post for the following peptides: DLK1 (309), NG2 (770), NG2 (2238), PDGFRβ (891) and RGS5 (5).
In vitro assessment of human CD8^+ T cell responses against TASA- or TAA-derived peptides. Peripheral blood mononuclear cells (PBMC) were obtained by venipuncture or leukapheresis from HLA-A2^+ normal donors or HLA-A2^+ melanoma patients with written consent under IRB-approved protocols (Table 3). CD8^+ T cells were then isolated by MACS (Miltenyi Biotec, Auburn, Calif.) and either not stimulated or stimulated with autologous, TASA peptide-pulsed DC as previously described (Tatsumi et al., Cancer Res., 63:4481-4489, 2003). Normal donor T cells were stimulated with TASA peptide-pulsed DC twice on a weekly schedule, with responder T cells harvested for analysis of their specificity 5 days after the booster stimulation (i.e. day 12 of T cell-DC co-culture). Melanoma patient CD8^+ T cells were analyzed after a single round of stimulation with TASA peptide-pulsed, autologous DC (i.e. day 5 of T cell-DC co-culture) as indicated. For DC-based stimulations, DC were pulsed with an equimolar (1 μM each) pool of the TASA peptides (Table 4) for 4 h at 37° C. at 5% CO2 tension. These antigen-loaded DC were then used to stimulate autologous CD8^+ T cells at a T cell-to-DC ratio of 10:1 to generate a bulk population of responder T cells. T cells were maintained in IMDM media supplemented with 10% human AB serum, 100 U/ml penicillin, […], 10 mM L-glutamine and MEM non-essential amino acids (all reagents from Invitrogen, except human AB serum that was purchased from Sigma-Aldrich, St. Louis, Mo.). Responder CD8^+ T cells were analyzed for reactivity against control (HLA-A2^+) T2 cells or T2 cells pulsed with individual TASA or TAA peptides (1 μM for 4 h at 37° C.) at a CD8^+ T cell-to-T2 cell ratio of 5:1 for 24 h. Harvested cell-free supernatants were consequently assessed for hIFN-γ content using a specific ELISA (BD Biosciences, San Diego, Calif.) with a lower detection limit of 4.7 pg/ml.
CD8^+ T cells from HLA-A2^+ normal donors or HLA-A2^+ melanoma patients recognize TASA-derived peptides in vitro. To assess whether the TASA-derived peptides identified in the HHD tumor model were also capable of being recognized by human CD8^+ T cells, IVS was performed using T cells isolated from the peripheral blood of HLA-A2^+ donors or HLA-A2^+ patients with melanoma. DC were pulsed with peptides derived from a given TASA for 4 h at 37° C., then washed and used as stimulator cells for autologous CD8^+ T cells. In cases where more than one peptide existed for a given protein, DC were pulsed with an equimolar (10 μM) mixture of each peptide. Two rounds of IVS using TASA for normal donors and a single-round of IVS using TASA for melanoma patients was applied. HLA-A2^+ normal donors (FIG. 4; Tables 4, 5A and 5B) and melanoma patients (FIG. 4; Tables 4, 5A and 5B) were each capable of recognizing many of the TASA-derived peptides.
For orientation: In an ELISA, binding on a coated surface is turned into a signal by an enzyme label.

Assay [2] concerns MC38 colon carcinoma. Put plainly: MC38 protection (prophylactic vaccination) model. The following applies: for Anti-tumor efficacy in MC38 protection model: DC.IL12 pulsed with a pool of 1 or more peptides derived from the indicated TBVA, vaccination d-14, d-7; for Protection against HLA-A2neg MC38 tumor challenge: immunization days -14 and -7, tumor challenge day 0 (FIG. 9B). The format is in vivo, HHD mice. Set-up: key to Anti-tumor efficacy in MC38 protection model: +/-, p < 0.05 versus DC only for 2 consecutive time points; - not significant at any time point analyzed. The text has this: FIGS. 9A-9B show a series of graphs illustrating induction of specific/protective CD8^+ T cells reactive against TASA as a consequence of DC/peptide-based vaccination. In FIG. 9A, HHD mice (five animals/cohort) were vaccinated twice (d-14, d-7) subcutaneously with PBS or with isologous DC.IL12 pulsed with PBS or synthetic peptides (Table 6) derived from the indicated TASA. In cases where more than 1 peptide was identified for a given target antigen, an equimolar pool of the indicated peptides (each 10 μM) was pulsed onto DC.IL12 and used for vaccination in the relevant cohort. One week after the second immunization, spleens were harvested and splenic CD8^+ T cells isolated using MACS-beads (Miltenyi). T cells were stimulated in vitro for 48 h using the HLA-A2^+ T2 cell line pulsed with relevant TASA vs. irrelevant HIV-nef190-198 ([…]; ref. 24) peptides. Cell-free supernatants were then recovered and IFN-γ levels by ELISA. Data are reported as mean+/−SD for triplicate ELISA determinations, and are representative of 3 independent experiments performed. *p<0.05 vs. HIV-nef control peptide responses. In FIG. 9B, HHD mice were vaccinated twice (days −14 and −7; right flank) subcutaneously with PBS or with isologous DC.IL12 pulsed with PBS or synthetic TASA peptides as indicated in FIG. 1A. In cases where more than 1 peptide is identified for a given target antigen, an equimolar pool of the indicated peptides (each 10 μM) was pulsed onto DC.IL12 and used for vaccination in the relevant cohort. One week after the booster vaccine (i.e. day zero), animals were challenged subcutaneously on their left flank with 2×10^6 MC38 colon carcinoma cells. Tumor growth was then monitored every 3-4 days through day 24. All data represent mean tumor area (in mm^2)+/−SD determined from 5 mice/cohort, and are representative of three independent experiments performed. *p<0.05 versus DC only on the indicated days.
Vaccine Experiments. For prophylactic experiments, HHD mice were immunized subcutaneously on the right flank with 100 μl PBS or PBS containing 10^6 syngenic DC.IL12 cells that had been untreated or pre-pulsed for 4 h at 37° C. with 10 μM synthetic peptide(s). Immunizations occurred on days −14 and −7, with mice subsequently receiving injections of MC38 (2×10^6) tumor cells in the left flank on d0. In all cases, treatment groups contained 5 mice per cohort. For analysis of tumor cellular composition in repeat experiments, MC38 tumors were isolated by surgical resection 10 days after tumor inoculation and prepared for fluorescence imaging, as described below. […] Mice were then untreated or treated with control, syngenic DC.IL12 or DC.IL12 (10^6 cells injected subcutaneously in the left flank on days 7 and 14) pulsed with synthetic TBVA peptides. In some assays, as indicated, in vivo antibody depletions (on days 6, 13 and 20 post-tumor inoculation to assess early involvement or on days 60 and 67 or 180 and 187 to assess late involvement) of protective CD4^+ T cells or CD8^+ T cells were performed and monitored as previously described (Zhao et al., Mol Ther., 19:805-814, 2011). In all cases, tumor size (area) was monitored every 3-4 days and is reported as mean+/−SD in mm^2.
The DLK1, EphA2, HBB, NG2, NRP1, NRP2, PDGFRβ, PSMA, RGS5, TEM1, VEGFR1 and VEGFR2 antigens were expressed in situ by blood vessel cells in the MC38 colon carcinoma TME (FIG. 14). Protection of HHD mice against a challenge with HLA-A2^neg MC38 tumor cells injected subcutaneously on day zero was assayed with immunization with TBVA-derived peptides on days −14 and −7. […]

Where no end group is shown, it is not given here.

Turning to “NRP2: equimolar pool of the three NRP2-derived peptides (214-222, 328-336, 436-444), pulsed onto DC or DC.IL12 (chain 1 DIWDGIPHV; chain 2 YLQVDLRFL; chain 3 NMLGMLSGL; also: equimolar pool of three peptides; listed as Homo sapiens)”, the “Specific CD8+ T cell Production of IFN-γ in Response to TASA” value (“Specific CD8+ T cell Production of IFN-γ” for short) in assay [1] (donor Mel1, melanoma patient) was “+ (Human responses were designated as + if T cell reactivity against T2 cells presenting the indicated peptide (IFN-γ ELISA) was >30 pg/ml and more than 2 fold higher than reactivity versus T2 cells pulsed with the negative control HIV-nef190-198 peptide)”; in assay [1] (donor Mel2, melanoma patient), “+ (Human responses were designated as + if T cell reactivity against T2 cells presenting the indicated peptide (IFN-γ ELISA) was >30 pg/ml and more than 2 fold higher than reactivity versus T2 cells pulsed with the negative control HIV-nef190-198 peptide)”; in assay [1] (donor Mel4, melanoma patient), “+ (Human responses were designated as + if T cell reactivity against T2 cells presenting the indicated peptide (IFN-γ ELISA) was >30 pg/ml and more than 2 fold higher than reactivity versus T2 cells pulsed with the negative control HIV-nef190-198 peptide)”; in assay [1] (donor Mel5, melanoma patient), “+ (Human responses were designated as + if T cell reactivity against T2 cells presenting the indicated peptide (IFN-γ ELISA) was >30 pg/ml and more than 2 fold higher than reactivity versus T2 cells pulsed with the negative control HIV-nef190-198 peptide)”. Also, in assay [2], the “Anti-tumor efficacy in MC38 protection model” value is listed as “-”. Besides, in assay [2], the “Protection against HLA-A2neg MC38 tumor challenge” value is “minimal protection”.

In the case of “PDGFRβ: PDGFRβ-derived peptide 890-898 pulsed onto DC or DC.IL12 (ILLWEIFTL; listed as Homo sapiens)”, the “Specific CD8+ T cell Production of IFN-γ” value in assay [1] (donor Mel8, melanoma patient) was “+ (Human responses were designated as + if T cell reactivity against T2 cells presenting the indicated peptide (IFN-γ ELISA) was >30 pg/ml and more than 2 fold higher than reactivity versus T2 cells pulsed with the negative control HIV-nef190-198 peptide)”; in assay [1] (donor ND2, normal donor) it was “+ (Human responses were designated as + if T cell reactivity against T2 cells presenting the indicated peptide (IFN-γ ELISA) was >30 pg/ml and more than 2 fold higher than reactivity versus T2 cells pulsed with the negative control HIV-nef190-198 peptide)”; in assay [1] (donor ND4, normal donor), “+ (Human responses were designated as + if T cell reactivity against T2 cells presenting the indicated peptide (IFN-γ ELISA) was >30 pg/ml and more than 2 fold higher than reactivity versus T2 cells pulsed with the negative control HIV-nef190-198 peptide)”. The “Protection against HLA-A2neg MC38 tumor challenge” value in assay [2] was “effective in preventing HLA-A2^neg MC38 tumor establishment or they resulted in the regression of tumors”.

As for “PSMA: PSMA-derived peptide 441-450 pulsed onto DC or DC.IL12 (LLQERGVAYI; listed as Homo sapiens)”, the “Specific CD8+ T cell Production of IFN-γ” value in assay [1] (donor Mel4, melanoma patient) was “+ (Human responses were designated as + if T cell reactivity against T2 cells presenting the indicated peptide (IFN-γ ELISA) was >30 pg/ml and more than 2 fold higher than reactivity versus T2 cells pulsed with the negative control HIV-nef190-198 peptide)”. In assay [1] (donor Mel6, melanoma patient), the “Specific CD8+ T cell Production of IFN-γ” value is “+ (Human responses were designated as + if T cell reactivity against T2 cells presenting the indicated peptide (IFN-γ ELISA) was >30 pg/ml and more than 2 fold higher than reactivity versus T2 cells pulsed with the negative control HIV-nef190-198 peptide)”. In assay [2], the “Anti-tumor efficacy in MC38 protection model” value is “-” and the “Protection against HLA-A2neg MC38 tumor challenge” value was “minimal protection”.
